Data taken from patent US12173018B2, “Penicillin-binding protein inhibitors” (priority 2018, dated 2024).
Values after ≈ are worked out from the molar mass of the structure shown. Like-named read-outs stand apart in the source and are kept apart here.

Columns and labels:
[1] = test system: engineered strain of Escherichia coli harboring CTX-M15; assay: microbe, parasite or virus in culture; type: cell-based; details: Escherichia coli, read-out: Microbiological Activity (MIC in mg/L), E. coli DH5α/pLBII-CTX-M15, engineered strain producing CTX-M15
E. coli PBP1b = E. coli PBP1b (Escherichia coli (strain K12), UniProt P02919); assay: Radioligand competition binding assay with 14C-labeled boronic acid probe, PBP1b
E. coli PBP3 = E. coli PBP3 (Escherichia coli (strain K12), UniProt P0AD68); assay: E. coli PBP3 Bocillin-FL fluorescence polarization competition binding assay
Method in brief: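 Competition against 0.1 μM Bocillin-FL for binding to 1.5 μM purified protein, read by fluorescence polarization for 60 min. Compounds tested from 0 to 1000 μM; EC50 taken as the concentration reducing probe binding.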

[2] = test system: E. coli DH5α empty pLBII vector control strain; assay: microbe, parasite or virus in culture; type: cell-based, Escherichia coli; details: Escherichia coli, read-out: Microbiological Activity (MIC in mg/L), E. coli DH5α/pLBII
Description: Briefly, cryo-preserved bacterial cultures of challenge strains are streaked for isolation on appropriate agar medium, in this case Mueller Hinton II agar. Following incubation to allow growth of the colonies, plates are sealed with parafilm and stored refrigerated for up to two weeks. For preparation of assay inoculum and to ensure low variability, at least 5 colonies are picked from the agar plates with an inoculating loop and aseptically transferred to a culture tube containing 3 mL of Mueller-Hinton Broth (supplemented with divalent cations to required levels based on Manufacturers' certification). The broth culture is grown for 3-5 hours at 37° C. with shaking at 200 rpm. Meanwhile, 2-fold serial dilutions of test compounds are conducted in a 96 well plate with a final volume of 75 μL per well at 2-fold the final desired concentration. After the dilution plates are set up the growing cultures are then diluted in a cuvette containing MH II broth and the optical density is measured at 600 nm. The Inoculum is diluted such that 75 μL of this culture in Mueller-Hinton Broth results in a starting bacterial concentration of 5×10^5 CFU/mL when added to the dilution plates. The plates are incubated for 16-20 hours at 37° C. The MIC values are read visually as the lowest concentration well with no bacterial growth.
To determine if test compounds were affected by CTX-M15, the most abundant extended spectrum […] in clinical settings worldwide, the inhibition of the growth of an engineered strain of Escherichia coli harboring CTX-M15 was tested. This strain was constructed by cloning the gene encoding CTX-M15 into the NdeI and BamHI restriction endonuclease sites of plasmid pLBII, placing the gene(s) under the control of the Lac promoter. The constructed expression plasmid for CTX-M15 was used to transform competent E. coli DH5α cells to make the engineered strain, including an empty pLBII vector control strain. The classic cell based broth microdilution MIC assay was employed as described above with the addition of control antibiotics, known to be degraded by β-lactamases (Ceftazidime, piperacillin and piperacillin+tazobactam).

E. coli ATCC 25922 = assay: Broth microdilution MIC, E. coli ATCC 25922; type: cell-based; details: Escherichia coli, ATCC25922; E. coli ATCC 25922, broth microdilution; read-out: MIC E. coli 25922
Method in brief: (§1)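 Strains are tested by standard CLSI broth microdilution. Log-phase cells, diluted by OD600 to 5×10^5 CFU/mL, meet 2-fold compound series and incubate 16-20 hours at 37° C before the lowest growth-free concentration is recorded.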

E. coli AG100 = assay: Broth microdilution MIC, E. coli AG100 (wild-type parent); type: cell-based; details: Escherichia coli; wild-type parent E. coli AG100, broth microdilution; read-out: MIC E. coli AG100
Method in brief: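 Starting inoculum of 5×10^5 CFU/mL, from colonies grown 3-5 h in Mueller-Hinton broth with divalent cations, added to two-fold compound dilution series.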

E. coli PBP2 = E. coli PBP2 (Escherichia coli (strain K12), UniProt P0AD65); assay: E. coli PBP2 Bocillin-FL fluorescence polarization competition binding assay; details: fluorescence polarization competition binding with Bocillin-FL; read-out: E. coli K12 PBP2 Potency (EC50)
From the text: To determine the ability of boronic acid-based test PBP inhibitors to bind Penicillin Binding Proteins (PBPs), Bocillin-FL (fluorescently-labeled penicillin V; ThermoFisher Scientific) was used in a fluorescence polarization (FP) competition binding assay to assess inhibitor binding to PBP2, PBP3 or PBP4 from Escherichia coli. PBPs were cloned and purified as described previously (King, D. T, et al., ACS Infectious Diseases 2015, 1, 175-184). To establish assay conditions for competition binding, an enzyme titration/saturation binding experiment was initially performed. Bocillin-FL was prepared at 0.2 μM in a buffer comprised of 50 mM Hepes (pH 8.0), 300 mM NaCl and 5% (v/v) glycerol. Saturation binding was performed by mixing 40 μl of PBP solutions ranging in concentrations from 0-12 μM with 40 μl of the 0.2 μM Bocillin-FL solution, in individual wells of a black 384-well microplate. FP was measured immediately upon mixing (Excitation, 490 nm; Emission, 520 nm; g-factor, 0.96), using a Cytation3 (BioTek) microplate reader and measured continuously for up to 120 minutes. […] For all PBPs the FP signal approached saturation with 1.5 μM PBP (final concentration). […] Assays (80 μl final volume) were performed with PBPs at a final concentration of 1.5 μM, Bocillin-FL at 0.1 μM and beta-lactam concentrations that ranged from 0-1000 μM. […] Bocillin-FL was added and the FP immediately measured for 60 minutes (90 minutes for PBP2). The beta-lactam potency was reported as the concentration of beta-lactam required to reduce binding of Bocillin-FL by […] (EC50). […] Binding assays for boronic acid PBP inhibitors were performed in an identical fashion.

E. coli D22 = assay: microbe, parasite or virus in culture; type: cell-based; details: Escherichia coli; hyper-permeable E. coli D22, broth microdilution; read-out: MIC E. coli D22
Method in brief: as §1

K. pneumoniae SI-117 = assay: microbe, parasite or virus in culture; type: cell-based; details: Klebsiella pneumoniae, SI117, read-out: MIC K. pneumoniae SI-117
Method in brief: as §1

E. coli AG100A = assay: microbe, parasite or virus in culture; type: cell-based; details: Escherichia coli, read-out: MIC E. coli AG100A
Method in brief: as §1

E. coli 901C = assay: microbe, parasite or virus in culture; type: cell-based; details: Escherichia coli; hyper-permeable E. coli 901C, broth microdilution; read-out: MIC E. coli 901C
Method in brief: as §1

K. pneumoniae UMM = assay: microbe, parasite or virus in culture; type: cell-based; details: Klebsiella pneumoniae; K. pneumoniae UMM producing SHV-5 and KPC-2; read-out: MIC K. pneumoniae UMM
Method in brief: as §1

K. pneumoniae 848844 = assay: microbe, parasite or virus in culture; type: cell-based, Klebsiella pneumoniae; details: Klebsiella pneumoniae; K. pneumoniae 848844 producing SHV-11 and KPC-2; read-out: MIC K. pneumoniae 848844
Method in brief: as §1

[3] = fluorescence polarization competition binding with Bocillin-FL, read-out: E. coli K12 PBP3 Potency

Sequence of E. coli PBP2 (P0AD65 whole entry): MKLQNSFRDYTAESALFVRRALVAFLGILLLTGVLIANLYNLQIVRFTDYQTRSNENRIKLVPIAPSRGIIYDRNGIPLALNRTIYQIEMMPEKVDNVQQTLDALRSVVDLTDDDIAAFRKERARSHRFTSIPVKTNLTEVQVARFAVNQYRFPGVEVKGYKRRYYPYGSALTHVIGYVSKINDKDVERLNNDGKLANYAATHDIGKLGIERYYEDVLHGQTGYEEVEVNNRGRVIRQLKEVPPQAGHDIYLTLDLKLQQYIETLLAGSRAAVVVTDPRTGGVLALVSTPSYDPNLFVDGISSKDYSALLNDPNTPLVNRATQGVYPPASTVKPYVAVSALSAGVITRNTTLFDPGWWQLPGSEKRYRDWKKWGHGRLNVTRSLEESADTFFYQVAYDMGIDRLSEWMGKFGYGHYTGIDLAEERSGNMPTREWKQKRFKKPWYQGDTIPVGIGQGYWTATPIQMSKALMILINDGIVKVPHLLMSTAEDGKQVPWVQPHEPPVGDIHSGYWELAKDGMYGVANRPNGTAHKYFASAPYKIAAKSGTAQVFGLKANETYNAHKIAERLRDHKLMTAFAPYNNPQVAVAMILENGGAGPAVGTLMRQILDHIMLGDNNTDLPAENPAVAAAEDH
Sequence of E. coli PBP3 (P0AD68 whole entry): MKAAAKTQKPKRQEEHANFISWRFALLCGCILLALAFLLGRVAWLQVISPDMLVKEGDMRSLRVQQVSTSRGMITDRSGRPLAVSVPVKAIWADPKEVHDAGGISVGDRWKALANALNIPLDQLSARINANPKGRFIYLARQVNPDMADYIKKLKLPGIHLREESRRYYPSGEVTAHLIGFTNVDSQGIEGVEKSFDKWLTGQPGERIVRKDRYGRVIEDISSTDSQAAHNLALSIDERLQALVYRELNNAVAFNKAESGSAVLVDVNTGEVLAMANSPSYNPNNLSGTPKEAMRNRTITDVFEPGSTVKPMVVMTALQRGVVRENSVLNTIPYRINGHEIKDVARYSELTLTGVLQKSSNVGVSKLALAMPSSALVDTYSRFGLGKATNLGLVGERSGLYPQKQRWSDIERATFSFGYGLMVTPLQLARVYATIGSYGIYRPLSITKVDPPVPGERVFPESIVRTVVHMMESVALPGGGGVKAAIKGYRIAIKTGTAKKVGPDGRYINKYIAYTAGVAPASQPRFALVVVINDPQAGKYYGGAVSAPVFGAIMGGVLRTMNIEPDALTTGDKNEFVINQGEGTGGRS
Sequence of E. coli PBP1b (P02919 whole entry): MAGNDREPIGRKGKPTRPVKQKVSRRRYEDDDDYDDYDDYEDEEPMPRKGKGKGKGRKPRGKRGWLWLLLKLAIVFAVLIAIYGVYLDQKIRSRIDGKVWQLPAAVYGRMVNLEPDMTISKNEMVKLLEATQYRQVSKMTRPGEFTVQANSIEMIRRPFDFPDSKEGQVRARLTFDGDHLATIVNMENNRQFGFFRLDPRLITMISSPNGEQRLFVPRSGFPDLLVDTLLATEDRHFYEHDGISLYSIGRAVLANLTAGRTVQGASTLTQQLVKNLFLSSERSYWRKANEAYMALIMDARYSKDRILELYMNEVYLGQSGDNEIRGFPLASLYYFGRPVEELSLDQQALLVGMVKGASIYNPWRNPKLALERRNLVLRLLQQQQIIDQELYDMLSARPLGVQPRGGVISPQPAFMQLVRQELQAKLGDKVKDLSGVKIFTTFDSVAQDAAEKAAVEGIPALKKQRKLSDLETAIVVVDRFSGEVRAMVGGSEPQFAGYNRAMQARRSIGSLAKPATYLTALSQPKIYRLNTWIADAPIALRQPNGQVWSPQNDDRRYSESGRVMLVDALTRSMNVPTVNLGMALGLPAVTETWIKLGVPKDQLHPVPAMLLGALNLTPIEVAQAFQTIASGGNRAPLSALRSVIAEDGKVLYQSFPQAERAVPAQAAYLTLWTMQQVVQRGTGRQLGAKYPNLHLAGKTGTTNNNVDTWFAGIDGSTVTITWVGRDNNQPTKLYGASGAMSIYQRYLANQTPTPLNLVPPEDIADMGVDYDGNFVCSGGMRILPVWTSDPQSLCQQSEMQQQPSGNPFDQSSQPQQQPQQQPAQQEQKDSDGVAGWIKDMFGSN

Structure (SMILES): CCN1CCN(C(=O)N[C@@H](CC(=O)O)C(=O)N[C@H]2Cc3cccc(C(=O)O)c3OB2O)C(=O)C1=O [Example 24, (R)-3-((S)-3-carboxy-2-(4-ethyl-2,3-dioxopiperazine-1-carboxamido)propanamido)-2-hydroxy-3,4-dihydro-2H-benzo[e][1,2]oxaborinine-8-carboxylic acid]
- MIC [1]: > 512 mg/L
- EC50 (E. coli PBP1b): > 100 µM
- EC50 (E. coli PBP3): > 500 µM
- MIC [2]: > 512 mg/L

Structure (SMILES): CCN1CCN(C(=O)NC(C(=O)N[C@H]2Cc3cccc(C(=O)O)c3OB2O)c2cc(OC)c(O)c(OC)c2)C(=O)C1=O (stereo partly drawn) [Example 29, (3R)-3-(2-(4-ethyl-2,3-dioxopiperazine-1-carboxamido)-2-(4-hydroxy-3,5-dimethoxyphenyl)acetamido)-2-hydroxy-3,4-dihydro-2H-benzo[e][1,2]oxaborinine-8-carboxylic acid]
- MIC [1]: 128 to 256 mg/L (≈ 219 to 438 µM)
- EC50 (E. coli PBP1b): > 100 µM
- EC50 (E. coli PBP3; [3]): > 500 µM
- MIC [2]: 128 to 256 mg/L (≈ 219 to 438 µM)

Structure (SMILES): CCN1CCN(C(=O)NC(C(=O)N[C@H]2Cc3cccc(C(=O)O)c3OB2O)c2cc(O)c(O)c(O)c2)C(=O)C1=O (stereo partly drawn) [Example 31, (3R)-3-(2-(4-ethyl-2,3-dioxopiperazine-1-carboxamido)-2-(3,4,5-trihydroxyphenyl)acetamido)-2-hydroxy-3,4-dihydro-2H-benzo[e][1,2]oxaborinine-8-carboxylic acid]
- MIC [1]: > 512 mg/L
- EC50 (E. coli PBP1b): 10 to 100 µM
- EC50 (E. coli PBP3): 30 to 500 µM
- MIC [2]: > 512 mg/L

Structure (SMILES): CCN1CCN(C(=O)NCC(NC(=O)N2CCN(CC)C(=O)C2=O)C(=O)N[C@H]2Cc3cccc(C(=O)O)c3OB2O)C(=O)C1=O (stereo partly drawn) [Example 33, (3R)-3-(2,3-bis(4-ethyl-2,3-dioxopiperazine-1-carboxamido)propanamido)-2-hydroxy-3,4-dihydro-2H-benzo[e][1,2]oxaborinine-8-carboxylic acid]
- MIC [1]: > 512 mg/L
- EC50 (E. coli PBP1b): < 10 µM
- EC50 (E. coli PBP3): > 500 µM
- MIC [2]: > 512 mg/L

Structure (SMILES): CCN1CCN(C(=O)NC(CNC(=O)c2ccc(O)c(O)c2)C(=O)N[C@H]2Cc3cccc(C(=O)O)c3OB2O)C(=O)C1=O (stereo partly drawn) [Example 35, (3R)-3-(3-(3,4-dihydroxybenzamido)-2-(4-ethyl-2,3-dioxopiperazine-1-carboxamido)propanamido)-2-hydroxy-3,4-dihydro-2H-benzo[e][1,2]oxaborinine-8-carboxylic acid]
- MIC [1]: > 512 mg/L
- EC50 (E. coli PBP1b): < 10 µM
- EC50 (E. coli PBP3): > 500 µM
- MIC [2]: > 512 mg/L

Structure (SMILES): CCN1CCN(C(=O)NC(CNC(=O)c2cccc(O)c2O)C(=O)N[C@H]2Cc3cccc(C(=O)O)c3OB2O)C(=O)C1=O (stereo partly drawn) [Example 36, (3R)-3-(3-(2,3-dihydroxybenzamido)-2-(4-ethyl-2,3-dioxopiperazine-1-carboxamido)propanamido)-2-hydroxy-3,4-dihydro-2H-benzo[e][1,2]oxaborinine-8-carboxylic acid]
- MIC [1]: > 512 mg/L
- EC50 (E. coli PBP1b): < 10 µM
- EC50 (E. coli PBP3): > 500 µM
- MIC [2]: > 512 mg/L

Structure (SMILES): CCN1CCN(C(=O)NC(C(=O)N[C@H]2Cc3cccc(C(=O)O)c3OB2O)c2ccc(O)nc2)C(=O)C1=O (stereo partly drawn) [Example 41, (3R)-3-(2-(4-ethyl-2,3-dioxopiperazine-1-carboxamido)-2-(6-hydroxypyridin-3-yl)acetamido)-2-hydroxy-3,4-dihydro-2H-benzo[e][1,2]oxaborinine-8-carboxylic acid]
- MIC [1]: 32 to 64 mg/L (≈ 60.9 to 122 µM)
- EC50 (E. coli PBP1b): < 10 µM
- EC50 (E. coli PBP3): 30 to 500 µM
- MIC [2]: 32 to 64 mg/L (≈ 60.9 to 122 µM)

Structure (SMILES): C[C@@H](O)[C@@H](NC(=O)N1CCN(CCF)C(=O)C1=O)C(=O)N[C@H]1Cc2ccc(F)c(C(=O)O)c2OB1O [Example 126, (R)-7-fluoro-3-((2R,3R)-2-(4-(2-fluoroethyl)-2,3-dioxopiperazine-1-carboxamido)-3-hydroxybutanamido)-2-hydroxy-3,4-dihydro-2H-benzo[e][1,2]oxaborinine-8-carboxylic acid]
- MIC (E. coli ATCC 25922): 8 to 16 µg/mL
- EC50 (E. coli PBP3; [3]): > 500 µM
- MIC (E. coli AG100): 8 to 16 µg/mL
- EC50 (E. coli PBP2): > 500 µM
- MIC (E. coli D22): 2 to 4 µg/mL
- MIC (K. pneumoniae SI-117): 8 to 16 µg/mL
- MIC (E. coli AG100A): 8 to 16 µg/mL
- MIC (E. coli 901C): 2 to 4 µg/mL
- MIC (K. pneumoniae UMM): 8 to 16 µg/mL
- MIC (K. pneumoniae 848844): 32 to 64 µg/mL

Structure (SMILES): CCN1CCN(C(=O)NC(C(=O)N[C@H]2Cc3cccc(C(=O)O)c3OB2O)c2ccc(N)nc2)C(=O)C1=O (stereo partly drawn) [Example 148, (3R)-3-(2-(6-aminopyridin-3-yl)-2-(4-ethyl-2,3-dioxopiperazine-1-carboxamido)acetamido)-2-hydroxy-3,4-dihydro-2H-benzo[e][1,2]oxaborinine-8-carboxylic acid]
- MIC (E. coli ATCC 25922): 8 to 16 µg/mL
- EC50 (E. coli PBP3): 30 to 500 µM
- MIC (E. coli AG100): 32 to 64 µg/mL
- EC50 (E. coli PBP2): > 500 µM
- MIC (E. coli D22): 2 to 4 µg/mL
- MIC (K. pneumoniae SI-117): 32 to 64 µg/mL
- MIC (E. coli AG100A): 2 to 4 µg/mL
- MIC (E. coli 901C): 0.5 to 1 µg/mL
- MIC (K. pneumoniae UMM): 32 to 64 µg/mL
- MIC (K. pneumoniae 848844): 32 to 64 µg/mL

Structure (SMILES): CCN1CCN(C(=O)NC(C(=O)N[C@H]2Cc3cccc(C(=O)O)c3OB2O)c2ccc(NS(C)(=O)=O)cn2)C(=O)C1=O (stereo partly drawn) [Example 154, (3R)-3-(2-(4-ethyl-2,3-dioxopiperazine-1-carboxamido)-2-(5-(methylsulfonamido)pyridin-2-yl)acetamido)-2-hydroxy-3,4-dihydro-2H-benzo[e][1,2]oxaborinine-8-carboxylic acid]
- MIC (E. coli ATCC 25922): > 128 µg/mL
- EC50 (E. coli PBP3): 30 to 500 µM
- MIC (E. coli AG100): > 128 µg/mL
- EC50 (E. coli PBP2): 30 to 500 µM
- MIC (E. coli D22): 8 to 16 µg/mL
- MIC (K. pneumoniae SI-117): > 128 µg/mL
- MIC (E. coli AG100A): 8 to 16 µg/mL
- MIC (E. coli 901C): 0.5 to 1 µg/mL
- MIC (K. pneumoniae UMM): > 128 µg/mL
- MIC (K. pneumoniae 848844): > 128 µg/mL
